The CheMixHub viscosity set

Assay: xn = mol fraction of the nth substance listed

O=C1CCCCC1 + CCCCCCCC
viscosity [mPa·s]
Settings	298.15 K	303.15 K	308.15 K
101 kPa, x2 = 0.0833	1.59	–	–
101 kPa, x2 = 0.1727	1.31	–	–
101 kPa, x2 = 0.3177	1.023	–	–
101 kPa, x2 = 0.4682	0.829	–	–
101 kPa, x2 = 0.6244	0.693	–	–
101 kPa, x2 = 0.7825	0.602	–	–
101 kPa, x2 = 0.8935	0.55	–	–
101.33 kPa, x1 = 0.0981	0.537	0.505	0.479
101.33 kPa, x1 = 0.2053	0.583	0.547	0.516
101.33 kPa, x1 = 0.3022	0.635	0.595	0.559
101.33 kPa, x1 = 0.4042	0.706	0.658	0.618
101.33 kPa, x1 = 0.5032	0.787	0.733	0.686
101.33 kPa, x1 = 0.603	0.895	0.831	0.774
101.33 kPa, x1 = 0.7025	1.039	0.96	0.894
101.33 kPa, x1 = 0.8021	1.264	1.165	1.054
101.33 kPa, x1 = 0.8984	1.508	1.38	1.271

CC(C)CC(C)(C)C + CCCCCCCCCCCC
viscosity [mPa·s]
Settings	298.15 K	323.14 K
100 kPa, x1 = 0.5	0.8601	0.6179
101 kPa, x1 = 0.0923	1.236	–
101 kPa, x1 = 0.1569	1.169	–
101 kPa, x1 = 0.2503	1.085	–
101 kPa, x1 = 0.3747	0.9632	–
101 kPa, x1 = 0.4786	0.8653	–
101 kPa, x1 = 0.5889	0.7696	–
101 kPa, x1 = 0.6762	0.7013	–
101 kPa, x1 = 0.7597	0.6346	–
101 kPa, x1 = 0.8459	0.5724	–
101 kPa, x1 = 0.9062	0.5377	–
101 kPa, x1 = 0.9457	0.5099	–
101 kPa, x1 = 0.9733	0.4948	–

CCC(C)N (configuration not stated) + O
viscosity [mPa·s], 101.33 kPa
Settings	x1 = 0.1	x1 = 0.1999	x1 = 0.3	x1 = 0.3998	x1 = 0.4994	x1 = 0.5999	x1 = 0.6998	x1 = 0.7997	x1 = 0.8999
298.15 K	2.276	2.556	2.232	1.774	1.322	0.9973	0.7605	0.5992	0.4885
303.15 K	1.937	2.173	1.917	1.538	1.165	0.8899	0.6906	0.552	0.4543
308.15 K	1.669	1.865	1.659	1.341	1.033	0.8024	0.6317	0.5102	0.4248
313.15 K	1.453	1.616	1.443	1.18	0.921	0.7245	0.5794	0.4736	0.3983
318.15 K	1.275	1.417	1.269	1.047	0.8266	0.6602	0.534	0.4409	0.3744
323.15 K	1.138	1.25	1.123	0.9361	0.7467	0.61	0.4935	0.4113	0.3528
